# Values of other authors in patent publication US20220079880A1, “SOLID MICELLAR COMPOSITIONS OF CANNABINOID ACIDS” (priority 2019, published 2022).
# Read-outs that look alike come from different tables or passages of the source.
# Key:
# PPARγ = biological target: T1, PPARγ (Homo sapiens, UniProt P37231)
# T1 sequence (P37231 1-505): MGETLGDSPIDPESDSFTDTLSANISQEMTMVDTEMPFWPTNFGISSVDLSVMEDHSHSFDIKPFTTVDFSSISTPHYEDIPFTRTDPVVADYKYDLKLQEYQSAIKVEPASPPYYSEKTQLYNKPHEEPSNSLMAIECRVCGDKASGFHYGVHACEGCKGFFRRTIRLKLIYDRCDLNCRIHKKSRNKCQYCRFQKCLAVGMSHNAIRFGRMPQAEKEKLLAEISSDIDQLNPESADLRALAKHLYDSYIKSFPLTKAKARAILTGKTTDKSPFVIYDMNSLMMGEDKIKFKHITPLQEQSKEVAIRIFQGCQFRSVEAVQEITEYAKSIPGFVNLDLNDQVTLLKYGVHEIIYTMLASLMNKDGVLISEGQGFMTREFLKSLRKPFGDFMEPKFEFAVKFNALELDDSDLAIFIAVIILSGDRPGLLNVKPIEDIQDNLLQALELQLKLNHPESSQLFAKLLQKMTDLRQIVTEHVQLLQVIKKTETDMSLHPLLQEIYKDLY
# prostate cancer cells = conditions: animal studies
# MBS model of epilepsy [1] = conditions: rats
# COX-2 = biological target: T2, COX-2 (Homo sapiens, UniProt P35354)
# T2 sequence (P35354 18-604): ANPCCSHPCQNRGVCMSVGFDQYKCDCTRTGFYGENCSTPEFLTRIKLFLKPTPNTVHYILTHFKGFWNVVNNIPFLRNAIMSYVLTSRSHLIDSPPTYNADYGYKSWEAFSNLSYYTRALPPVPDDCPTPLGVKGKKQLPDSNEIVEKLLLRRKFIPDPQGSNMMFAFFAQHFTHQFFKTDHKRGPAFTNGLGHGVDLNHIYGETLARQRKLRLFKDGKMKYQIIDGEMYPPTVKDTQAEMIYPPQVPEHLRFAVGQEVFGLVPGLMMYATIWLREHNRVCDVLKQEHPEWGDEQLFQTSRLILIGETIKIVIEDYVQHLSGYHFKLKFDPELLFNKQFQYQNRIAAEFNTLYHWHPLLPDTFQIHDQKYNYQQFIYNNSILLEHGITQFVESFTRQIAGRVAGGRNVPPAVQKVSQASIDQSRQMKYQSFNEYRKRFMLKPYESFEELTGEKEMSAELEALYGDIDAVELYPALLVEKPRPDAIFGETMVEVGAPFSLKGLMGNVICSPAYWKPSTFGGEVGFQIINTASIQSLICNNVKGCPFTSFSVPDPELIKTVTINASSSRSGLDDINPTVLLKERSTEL
# [2] = nano-size lipid-based systems
# seizures = conditions: response = reduced seizure frequency of greater than 50%; surveys
# MBS model of epilepsy [3] = conditions: mice
# [4] = system: experimentally induced nausea; conditions: rats; 5HT1A receptor-mediated
# [5] = system: MDA-MB-231 human breast cancer cells
# TRPV1′ = TRPV1′ (Homo sapiens, UniProt Q8NER1)
# Sequence of TRPV1′ (Q8NER1 whole entry, species assumed): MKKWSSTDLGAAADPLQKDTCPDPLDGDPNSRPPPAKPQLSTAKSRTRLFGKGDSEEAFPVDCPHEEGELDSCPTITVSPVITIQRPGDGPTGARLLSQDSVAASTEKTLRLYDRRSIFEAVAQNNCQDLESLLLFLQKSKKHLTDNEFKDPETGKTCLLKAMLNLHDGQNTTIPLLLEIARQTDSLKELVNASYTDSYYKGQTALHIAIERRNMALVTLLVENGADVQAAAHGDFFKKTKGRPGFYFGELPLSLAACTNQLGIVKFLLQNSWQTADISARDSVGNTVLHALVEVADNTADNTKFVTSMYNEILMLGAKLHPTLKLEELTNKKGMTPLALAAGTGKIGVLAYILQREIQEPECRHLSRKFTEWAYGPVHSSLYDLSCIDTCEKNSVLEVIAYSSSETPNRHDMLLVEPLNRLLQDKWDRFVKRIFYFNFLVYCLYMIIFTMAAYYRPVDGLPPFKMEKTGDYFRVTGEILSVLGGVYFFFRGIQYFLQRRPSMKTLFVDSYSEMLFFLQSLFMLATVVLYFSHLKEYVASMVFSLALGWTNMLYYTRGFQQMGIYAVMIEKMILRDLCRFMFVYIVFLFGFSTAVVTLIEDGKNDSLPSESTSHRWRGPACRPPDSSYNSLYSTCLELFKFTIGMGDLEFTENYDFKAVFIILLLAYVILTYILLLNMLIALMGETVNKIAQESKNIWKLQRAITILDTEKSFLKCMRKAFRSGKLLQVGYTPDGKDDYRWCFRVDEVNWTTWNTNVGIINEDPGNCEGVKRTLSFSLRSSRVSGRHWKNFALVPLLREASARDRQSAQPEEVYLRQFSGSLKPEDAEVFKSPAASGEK
# COX-1 = COX-1 (Homo sapiens, UniProt P23219)
# Sequence of COX-1 (P23219 24-599): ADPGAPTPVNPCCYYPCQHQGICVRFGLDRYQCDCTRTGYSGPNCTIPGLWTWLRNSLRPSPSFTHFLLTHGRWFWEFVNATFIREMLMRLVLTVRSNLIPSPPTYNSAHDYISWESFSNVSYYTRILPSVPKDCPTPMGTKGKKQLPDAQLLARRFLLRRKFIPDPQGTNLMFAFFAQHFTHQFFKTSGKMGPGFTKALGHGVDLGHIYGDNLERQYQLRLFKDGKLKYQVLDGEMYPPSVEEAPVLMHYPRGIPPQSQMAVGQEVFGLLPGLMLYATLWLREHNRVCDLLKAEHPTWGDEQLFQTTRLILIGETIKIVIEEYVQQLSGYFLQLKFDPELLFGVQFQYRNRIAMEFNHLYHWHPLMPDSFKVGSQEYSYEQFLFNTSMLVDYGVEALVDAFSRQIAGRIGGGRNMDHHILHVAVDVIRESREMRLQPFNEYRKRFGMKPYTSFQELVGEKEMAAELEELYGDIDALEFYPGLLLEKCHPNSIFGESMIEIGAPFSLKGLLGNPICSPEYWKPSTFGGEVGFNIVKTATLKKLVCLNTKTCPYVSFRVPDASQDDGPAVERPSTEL
# 5-HT1A receptors = biological target: T3, 5-HT1A receptors (Homo sapiens, UniProt P08908)
# T3 sequence (P08908 1-422): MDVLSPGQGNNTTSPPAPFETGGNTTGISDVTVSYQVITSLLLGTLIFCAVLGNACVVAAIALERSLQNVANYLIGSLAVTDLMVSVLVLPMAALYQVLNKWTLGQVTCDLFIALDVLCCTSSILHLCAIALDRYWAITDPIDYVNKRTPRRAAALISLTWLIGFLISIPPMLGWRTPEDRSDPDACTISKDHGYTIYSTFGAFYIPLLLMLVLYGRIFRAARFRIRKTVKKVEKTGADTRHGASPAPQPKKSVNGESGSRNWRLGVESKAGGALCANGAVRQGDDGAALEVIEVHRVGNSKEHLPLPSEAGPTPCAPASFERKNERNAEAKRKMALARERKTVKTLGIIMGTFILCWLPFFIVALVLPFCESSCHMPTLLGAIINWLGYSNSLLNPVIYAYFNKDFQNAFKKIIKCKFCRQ
# TRPM8 = TRPM8 (Homo sapiens, UniProt Q7Z2W7)
# Sequence of TRPM8 (Q7Z2W7 whole entry, species assumed): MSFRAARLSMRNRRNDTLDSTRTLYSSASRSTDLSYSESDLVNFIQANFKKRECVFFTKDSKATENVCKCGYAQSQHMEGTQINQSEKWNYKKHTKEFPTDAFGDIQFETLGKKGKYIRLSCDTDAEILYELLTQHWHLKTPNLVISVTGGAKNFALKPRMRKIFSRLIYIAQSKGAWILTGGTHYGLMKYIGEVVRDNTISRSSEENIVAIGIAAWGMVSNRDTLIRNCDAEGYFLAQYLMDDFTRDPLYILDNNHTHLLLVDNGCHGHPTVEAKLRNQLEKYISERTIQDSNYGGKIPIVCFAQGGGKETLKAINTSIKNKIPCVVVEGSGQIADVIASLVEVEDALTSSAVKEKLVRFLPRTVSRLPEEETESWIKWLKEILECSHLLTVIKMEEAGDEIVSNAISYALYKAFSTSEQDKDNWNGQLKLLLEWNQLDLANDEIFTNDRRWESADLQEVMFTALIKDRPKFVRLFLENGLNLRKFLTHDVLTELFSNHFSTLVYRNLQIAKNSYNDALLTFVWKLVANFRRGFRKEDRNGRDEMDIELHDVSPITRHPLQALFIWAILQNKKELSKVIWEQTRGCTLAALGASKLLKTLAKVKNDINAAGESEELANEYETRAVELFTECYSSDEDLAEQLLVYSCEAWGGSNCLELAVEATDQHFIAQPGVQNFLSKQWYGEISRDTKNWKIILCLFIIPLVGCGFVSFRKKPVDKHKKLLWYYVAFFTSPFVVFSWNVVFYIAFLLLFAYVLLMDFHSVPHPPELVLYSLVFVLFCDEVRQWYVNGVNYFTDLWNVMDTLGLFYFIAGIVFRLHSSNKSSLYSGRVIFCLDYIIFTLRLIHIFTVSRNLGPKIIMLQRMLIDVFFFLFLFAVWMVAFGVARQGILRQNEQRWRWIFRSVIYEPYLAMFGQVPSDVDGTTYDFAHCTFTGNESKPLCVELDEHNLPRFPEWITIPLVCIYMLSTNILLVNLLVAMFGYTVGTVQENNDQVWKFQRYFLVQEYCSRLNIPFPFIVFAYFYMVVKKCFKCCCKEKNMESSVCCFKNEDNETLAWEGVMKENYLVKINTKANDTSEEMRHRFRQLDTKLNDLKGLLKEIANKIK
# TRPA1 = TRPA1 (Homo sapiens, UniProt O75762)
# Sequence of TRPA1 (O75762 whole entry, species assumed): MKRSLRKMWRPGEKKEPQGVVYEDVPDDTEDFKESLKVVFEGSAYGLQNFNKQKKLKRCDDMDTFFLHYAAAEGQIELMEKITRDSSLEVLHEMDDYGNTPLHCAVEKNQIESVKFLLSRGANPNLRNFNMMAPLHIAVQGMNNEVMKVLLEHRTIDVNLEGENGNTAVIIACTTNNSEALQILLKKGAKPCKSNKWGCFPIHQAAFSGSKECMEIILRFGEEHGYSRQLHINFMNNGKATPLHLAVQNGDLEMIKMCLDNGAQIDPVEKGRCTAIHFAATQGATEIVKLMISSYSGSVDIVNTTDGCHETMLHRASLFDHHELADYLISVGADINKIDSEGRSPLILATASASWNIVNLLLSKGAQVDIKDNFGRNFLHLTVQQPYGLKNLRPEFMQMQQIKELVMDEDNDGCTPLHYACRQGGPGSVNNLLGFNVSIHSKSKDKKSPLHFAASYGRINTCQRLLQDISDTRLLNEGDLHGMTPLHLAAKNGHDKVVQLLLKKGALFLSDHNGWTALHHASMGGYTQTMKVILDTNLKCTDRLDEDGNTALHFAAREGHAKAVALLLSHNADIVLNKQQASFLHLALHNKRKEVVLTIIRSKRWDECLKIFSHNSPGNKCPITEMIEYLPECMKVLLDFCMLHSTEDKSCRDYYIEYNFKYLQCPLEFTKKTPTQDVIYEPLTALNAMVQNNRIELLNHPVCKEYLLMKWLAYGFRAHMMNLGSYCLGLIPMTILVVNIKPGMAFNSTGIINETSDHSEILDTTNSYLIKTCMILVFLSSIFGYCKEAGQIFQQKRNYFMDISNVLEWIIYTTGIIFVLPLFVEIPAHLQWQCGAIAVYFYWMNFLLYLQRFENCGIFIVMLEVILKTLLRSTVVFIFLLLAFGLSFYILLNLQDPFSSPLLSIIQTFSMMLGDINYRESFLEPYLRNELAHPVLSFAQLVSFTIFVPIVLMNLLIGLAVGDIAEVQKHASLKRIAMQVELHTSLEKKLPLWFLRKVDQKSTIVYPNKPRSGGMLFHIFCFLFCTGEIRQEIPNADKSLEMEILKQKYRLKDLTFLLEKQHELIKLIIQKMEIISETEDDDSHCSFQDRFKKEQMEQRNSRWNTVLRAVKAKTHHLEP
# GPR-55 = GPR-55 (Homo sapiens, UniProt Q9Y2T6)
# Sequence of GPR-55 (Q9Y2T6 whole entry, species assumed): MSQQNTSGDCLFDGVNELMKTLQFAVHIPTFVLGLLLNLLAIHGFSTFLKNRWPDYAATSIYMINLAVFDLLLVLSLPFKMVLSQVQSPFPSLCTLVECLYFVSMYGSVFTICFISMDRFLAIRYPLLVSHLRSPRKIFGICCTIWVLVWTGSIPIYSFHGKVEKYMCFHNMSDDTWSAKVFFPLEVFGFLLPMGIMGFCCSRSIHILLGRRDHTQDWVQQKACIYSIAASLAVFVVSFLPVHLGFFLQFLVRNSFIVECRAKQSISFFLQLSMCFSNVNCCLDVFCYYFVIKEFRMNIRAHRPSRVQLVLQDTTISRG
# [6] = receptor affinity and effect; purportedly
smiles,measurement,setting,value
"CCCCCc1cc2c(c(O)c1C(=O)O)[C@@H]1C=C(C)CC[C@H]1C(C)(C)O2 [THCa, tetrahydrocannabinolic acid]",PPARγ binding compared with the corresponding neutral cannabinoid,PPARγ,outperform
same,effect on spread of prostate cancer cells,prostate cancer cells,limit the spread
"C=C(C)[C@@H]1CCC(C)=C[C@H]1c1c(O)cc(CCCCC)cc1O [CBD, cannabidiol]",ED50 for the MBS model of epilepsy,MBS model of epilepsy [1],89 mg/kg
same,"COX-2 inhibition, in words",COX-2; compared with CBDa,not nearly as active
same,improvement in BA,[2],10 ×
same,response rate,seizures,~47%
same,ED50 for the MBS model of epilepsy,MBS model of epilepsy [3],85 mg/kg
"CCCCCc1cc(O)c(C/C=C(\C)CCC=C(C)C)c(O)c1C(=O)O [CBGa, cannabigerolic acid]",PPARγ binding compared with the corresponding neutral cannabinoid,PPARγ,outperform
"C=C(C)[C@@H]1CCC(C)=C[C@H]1c1c(O)cc(CCCCC)c(C(=O)O)c1O [CBDa, cannabidiolic acid]",PPARγ binding compared with the corresponding neutral cannabinoid,PPARγ,outperform
same,effect on experimentally induced nausea,[4],suppressed
same,effect on migration of MDA-MB-231 cells,[5],inhibit migration
same,concentration that inhibited COX-2,COX-2,~2 µM
same,activity at TRPV1′,TRPV1′,agonist
same,"COX-1 inhibition, in words",COX-1,does not inhibit
same,affinity for 5-HT1A receptors over CBD,5-HT1A receptors,100 fold
same,activity at TRPM8,TRPM8,agonist
same,activity at TRPA1,TRPA1,agonist
same,effect on GPR-55,GPR-55,inhibitory effects
same,potency relative to CBD,[6],1000-4000 ×
